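Exposure lasted 48 hours, with cells grown in 96-well plates and compounds tested at five concentrations. GI50 marks 50% less growth.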 The source made the active and inactive calls. Rule as the data show it: active = GI50 up to about 1.1 µM and inactive = higher.
Tests used:
Assay in all cases: DTP human tumour cell line panel, 48 h
SW-620 = system: SW-620
OVCAR-3 = system: OVCAR-3
NCI-H460 = system: NCI-H460
SF-295 = system: SF-295
IGROV-1 = system: IGROV-1
HCT-116 = system: HCT-116
LOX IMVI = system: LOX IMVI
SR = system: SR
M14 = system: M14
SK-MEL-5 = system: SK-MEL-5
HL-60 = system: HL-60
Malme-3M = system: Malme-3M
NCI-H522 = system: NCI-H522
TK-10 = system: TK-10
OVCAR-4 = system: OVCAR-4

Measured: GI50

Oc1ccc(/C=N/N=c2\[nH][nH]/c(=N\N=C\c3ccc(O)cc3O)c3ccccc23)c(O)c1
active: SW-620 0.385 µM | OVCAR-3 0.185 µM | NCI-H460 0.355 µM | SF-295 0.295 µM | IGROV-1 0.327 µM | HCT-116 0.313 µM | LOX IMVI 0.313 µM | SR 0.136 µM | M14 0.318 µM | SK-MEL-5 0.236 µM | HL-60 0.271 µM

Cc1cc(S(=O)(=O)Nc2nc3ccccc3nc2-c2cccc([N+](=O)[O-])c2)c(S)cc1Cl
inactive: Malme-3M 18.5 µM | OVCAR-3 15.9 µM | NCI-H460 11 µM | NCI-H522 16.8 µM | SF-295 25.1 µM | TK-10 35.2 µM | IGROV-1 13.2 µM | HCT-116 18.8 µM | SR 20.8 µM | M14 17.2 µM | SK-MEL-5 15 µM | HL-60 20.4 µM | OVCAR-4 27.5 µM

COc1ccc2c(c1)c1c(n2CCN2CCOCC2)-c2ccccc2CC1
inactive: SW-620 32 µM | Malme-3M 32.8 µM | OVCAR-3 44.8 µM | NCI-H460 31.9 µM | NCI-H522 35.4 µM | SF-295 27.9 µM | TK-10 48.1 µM | IGROV-1 37.2 µM | HCT-116 33.5 µM | SR 18.2 µM | M14 41.4 µM | SK-MEL-5 20.7 µM | OVCAR-4 48.4 µM

O=C1C(C(O)(C(F)(F)Cl)C(F)(F)Cl)CCCC1C(O)(C(F)(F)Cl)C(F)(F)Cl (configuration not stated)
inactive: SW-620 > 10 µM | Malme-3M > 10 µM | OVCAR-3 > 10 µM | NCI-H460 > 10 µM | NCI-H522 > 10 µM | SF-295 > 10 µM | TK-10 > 10 µM | IGROV-1 > 10 µM | HCT-116 > 10 µM | LOX IMVI > 10 µM | M14 > 10 µM | SK-MEL-5 > 10 µM | OVCAR-4 > 10 µM

CC1CN=C(N(C)C(=O)Nc2ccc(Cl)cc2)S1 (configuration not stated)
inactive: SW-620 20.4 µM | Malme-3M 53.1 µM | OVCAR-3 27.2 µM | NCI-H460 3.77 µM | SF-295 5.14 µM | TK-10 29.1 µM | IGROV-1 4.56 µM | HCT-116 4.89 µM | LOX IMVI 20.2 µM | SR 12.3 µM | M14 1.72 µM | SK-MEL-5 9.04 µM | HL-60 15.7 µM | OVCAR-4 65.2 µM

O=C1N/C(=N/N=C/C(O)C(O)C(O)CO)N/C1=C\c1ccco1 (configuration not stated)
inactive: SW-620 > 100 µM | Malme-3M > 100 µM | OVCAR-3 > 100 µM | NCI-H460 > 100 µM | NCI-H522 > 100 µM | SF-295 > 100 µM | TK-10 > 100 µM | IGROV-1 > 100 µM | HCT-116 > 100 µM | LOX IMVI > 100 µM | M14 > 100 µM | SK-MEL-5 > 100 µM | HL-60 > 100 µM | OVCAR-4 > 100 µM

CC(C)C(O)(C(=O)OCN1C(=O)C2C3C=CC(C2C1=O)C1C2C(=O)N(COC(=O)C(O)(C(C)C)C(C)O)C(=O)C2C31)C(C)O (configuration not stated)
inactive: SW-620 > 100 µM | Malme-3M > 100 µM | OVCAR-3 > 100 µM | NCI-H460 > 100 µM | NCI-H522 > 100 µM | SF-295 > 100 µM | TK-10 > 100 µM | IGROV-1 > 100 µM | HCT-116 > 100 µM | SR > 100 µM | M14 > 100 µM | SK-MEL-5 > 100 µM | HL-60 > 100 µM | OVCAR-4 > 100 µM

Cn1c(=O)n2c(-c3ccccc3)c(-c3ccccc3)n2c1=O
inactive: SW-620 > 100 µM | Malme-3M > 100 µM | OVCAR-3 > 100 µM | NCI-H460 > 100 µM | SF-295 > 100 µM | TK-10 > 100 µM | IGROV-1 > 100 µM | HCT-116 > 100 µM | LOX IMVI > 100 µM | SR > 100 µM | M14 > 100 µM | SK-MEL-5 > 100 µM | HL-60 46.9 µM | OVCAR-4 > 100 µM

CCN(CC)CCCNc1n[n+]([O-])c2ccccc2[n+]1[O-]
inactive: SW-620 15.1 µM | Malme-3M 11.3 µM | OVCAR-3 > 10 µM | NCI-H460 3.99 µM | NCI-H522 8.22 µM | SF-295 15 µM | TK-10 4.07 µM | IGROV-1 5.73 µM | HCT-116 11 µM | SR 13.7 µM | M14 22.4 µM | SK-MEL-5 1.52 µM | HL-60 3.57 µM | OVCAR-4 23.7 µM

COC(=O)Cn1c(=O)oc2nc(-c3ccccc3)cc(C(F)(F)F)c21
inactive: SW-620 73.1 µM | OVCAR-3 75.3 µM | NCI-H460 > 100 µM | NCI-H522 25.3 µM | SF-295 45.3 µM | TK-10 > 100 µM | IGROV-1 66.1 µM | HCT-116 42.9 µM | SR 62.2 µM | M14 > 100 µM | SK-MEL-5 26.7 µM | OVCAR-4 86.3 µM

— ChEMBL document CHEMBL1201862, “PubChem BioAssay data set” (2004)
